Experimental data published in patent US4454122A, “Adenosine derivatives of anti-inflammatory and analgesic activity, and therapeutic compositions which contain them as their active principle” (Bioresearch S.r.l., priority 1982, dated 1984).

Tests used:
[1] = test system: experimental edema in the rat by carragen; test: experimental edema in the rat by carragen (Winter method), percentage protection; format: in vivo; settings: for inhibition in vivo at 85 mg/kg: 85 mg/kg orally; for inhibition in vivo at 80 mg/kg: 80 mg/kg orally
gastro-intestinal system = test: secondary effects on the gastro-intestinal system at ED50 doses (gastric lesions); format: in vivo, rat; settings: at ED50 doses
Procedure: In the same test, the ED50 of indomethacine is 9 mg/kg.

[2] = test system: experimental edema in the rat by carragen; test: experimental edema in the rat by carragen (Winter method), percentage protection; format: in vivo
Procedure: ^ (a) signifies that the product was administered intramuscularly.

[3] = test system: pleuritis induced in the rat by carragen; test: pleuritis induced in the rat by carragen (Velo method); format: in vivo
rat = settings: Martelli A., 1973; cited from earlier work
[4] = lethal dose in the rat and therapeutical index; settings: in vivo; edema test in the rat; read-out: therapeutical index (TI)
[5] = test system: stretching by phenylquinone; test: stretching test by phenylquinone (analgesic activity); format: in vivo; settings: im; intramuscularly
[6] = acute toxicity, DL50 in the mouse; settings: in vivo
Description: The compounds of the present invention are practically free from acute toxicity when administered orally. They are practically free from toxicity at therapeutic doses for any method of administration. The following values are obtained for MTA and MTA sulphoxide: […]

mouse = test: hot plate test on the mouse according to Roberts (analgesic activity); format: in vivo
Procedure: C--The analgesic activity of the products was tested by two tests considered very significant.
In the hot plate test on the mouse according to Roberts (Roberts E. Simonsen D.G. (1966) Biochem. Pharmac. 15, 1875-) the MTA gives a protection of 50% with an oral dose of 37 mg/kg. An approximately equivalent protection of 58% is obtained with 100 mg/kg of amidopyrine administered orally.

[7] = test system: platelet aggregation induced by arachidonic acid; test: in vitro platelet aggregation induced by arachidonic acid (AA); format: cell-based; settings: MTA 5×10^-4 M or PGI2 5×10^-9 M, each alone; FIG. 3
Procedure: (2) "in vitro" tests on platelet aggregation induced by arachidonic acid (AA);
Blood was withdrawn without stasis, and an anticoagulant (3.8% sodium citrate) was added to give a blood:citrate ratio of 9:1. Plasma rich in platelets and plasma poor in platelets were obtained by centrifuging at ambient temperature.
The platelet aggregation was estimated using the Born & Cross method (G. V. R. Born and M. J. Cross, J. Physiol., Lond. 168, 178, 1963) on the plasma fraction rich in platelets.
The aggregating agents were used in the following concentrations:
ADP (Sigma) 1 μM; collagen (Horn) 5 μml; arachidonic acid 4×10^-4 M.
The capacity of MTA to increase the inhibiting effect of prostacyclin (PGI2) in aggregation induced by AA was also investigated. In FIG. 3, curve 1 relates to the controls, curve 2 to MTA at a concentration of 5×10^-4 M, curve 3 to PGI2 at a concentration of 5×10^-9 M, and curve 4 to a mixture consisting of 5×10^-4 M MTA and 5×10^-9 M PGI2.

[8] = test system: fever induced in the rat by beer yeast; test: fever induced in the rat by beer yeast (antipyretic activity); format: in vivo; settings: 200 mg/kg, orally
Procedure: This was measured for the new products by means of fever induced in the rat by beer yeast (Winder C. V. et al (1961) J. Pharmacol. Exp. Ther. 133, 117).

[9] = po, rat, read-out: Percent protection calculated on edema development
[10] = intramuscular, table 1 and all the tests carried out

Work on `CC(C)CSC[C@H]1O[C@@H](n2cnc3c(N)ncnc32)[C@H](O)[C@@H]1O` yielded an inhibition in vivo at 85 mg/kg [1, 9] of 62%.

For `CC(C)SC[C@H]1O[C@@H](n2cnc3c(N)ncnc32)[C@H](O)[C@@H]1O`, the inhibition in vivo at 80 mg/kg [1, 9] was 45%.

Work on `CCC(C)SC[C@H]1O[C@@H](n2cnc3c(N)ncnc32)[C@H](O)[C@@H]1O` (stereo partly drawn) yielded an inhibition in vivo at 85 mg/kg [1, 9] of 35%.

For `COc1ccc2c(c1)c(CC(=O)O)c(C)n2C(=O)c1ccc(Cl)cc1` [Indomethacine, reference compound], the “secondary effect on the gastro-intestinal system / gastric lesions” value (gastro-intestinal system) was “serious gastric lesions”, the inhibition in vivo at 9 mg/kg ([2]; Rattus norvegicus, po, read-out: Percent protection calculated on edema development) was 50% and the “protection, compared with that of MTA (in words)” value ([3]; 10 mg/kg, compared with MTA 75 mg/kg oral) was “comparable protection”. The “LD in the rat” value (rat) was 12 mg/kg, the selectivity ratio [4] was 1.3 and the ED50 ([1]; Rattus norvegicus, po, read-out: ED50 (edema test)) was 9 mg/kg.

`C[S+]([O-])C[C@H]1O[C@@H](n2cnc3c(N)ncnc32)[C@H](O)[C@@H]1O` (stereo partly drawn) [MTA sulphoxide, methylthioadenosine sulphoxide] showed an ED50 [5] of 10 mg/kg, an LD50 ([6]; iv, intravenously) of 400 mg/kg and an LD50 ([6]; po, orally) greater than 2000 mg/kg. The inhibition in vivo at 8.6 mg/kg ([2]; im, 8.6 mg/kg intramuscularly, rat, read-out: Percent protection calculated on edema development) was 50%, the “activity by intramuscular administration (in words)” value [2, 10] was “greater activity” and the “protection calculated on the total number of cells present in the exudate” value ([3]; 80 mg/kg, intramuscularly, rat) was 76.4%. The “protection calculated on the volume of the exudate” value ([3]; 80 mg/kg, intramuscularly, rat) was 75.8%, the “protection in the hot plate test” value (mouse; 20 mg/kg, intramuscularly) was 50% and the “protection in the hot plate test” value (mouse; 100 mg/kg, oral) was 50%. For the same compound, the “activity by intramuscular administration (in words)” value [1, 10] was “particularly active” and the inhibition in vivo at 156 mg/kg ([1]; po, 156 mg/kg orally, rat, read-out: Percent protection calculated on edema development) was 50%.

For `CCCCC[C@H](O)/C=C/[C@@H]1[C@H]2C/C(=C/CCCC(=O)O)O[C@H]2C[C@H]1O` [PGI2, reference compound], the “antiaggregation action alone, AA induced (in words)” value [7] was “ineffective”.

For `Cc1c(N(C)C)c(=O)n(-c2ccccc2)n1C` [amidopyrine, reference compound], the temperature reduction [8] was 4.69% and the “protection in the hot plate test” value (mouse; 100 mg/kg, oral) was 58%.

For `CCCSC[C@H]1O[C@@H](n2cnc3c(N)ncnc32)[C@H](O)[C@@H]1O` [n = 0 R = (CH2)2CH3, R1 = R2 = H], the inhibition in vivo at 80 mg/kg [1, 9] was 53%.

For `CCCCSC[C@H]1O[C@@H](n2cnc3c(N)ncnc32)[C@H](O)[C@@H]1O` [n = 0 R = (CH2)3CH3, R1 = R2 = H], the inhibition in vivo at 85 mg/kg [1, 9] was 39%.

For `CCCCCSC[C@H]1O[C@@H](n2cnc3c(N)ncnc32)[C@H](O)[C@@H]1O` [n = 0 R = (CH2)4CH3, R1 = R2 = H], the inhibition in vivo at 90 mg/kg ([1]; po, 90 mg/kg orally, rat, read-out: Percent protection calculated on edema development) was 25%.

`CCCCCCCSC[C@H]1O[C@@H](n2cnc3c(N)ncnc32)[C@H](O)[C@@H]1O` [n = 0 R = (CH2)6CH3, R1 = R2 = H] showed an inhibition in vivo at 95 mg/kg ([1]; po, 95 mg/kg orally, rat, read-out: Percent protection calculated on edema development) of 20%.

With `CCCCCCCCSC[C@H]1O[C@@H](n2cnc3c(N)ncnc32)[C@H](O)[C@@H]1O` [n = 0 R = (CH2)7CH3, R1 = R2 = H] the inhibition in vivo at 100 mg/kg ([1]; po, 100 mg/kg orally, rat, read-out: Percent protection calculated on edema development) was 47%.

Work on `CCCCCCCCCCSC[C@H]1O[C@@H](n2cnc3c(N)ncnc32)[C@H](O)[C@@H]1O` [n = 0 R = (CH2)9CH3, R1 = R2 = H] yielded an inhibition in vivo at 106 mg/kg ([1]; po, 106 mg/kg orally, rat, read-out: Percent protection calculated on edema development) of 33%.

Work on `CCCCCCCCCCCCSC[C@H]1O[C@@H](n2cnc3c(N)ncnc32)[C@H](O)[C@@H]1O` [n = 0 R = (CH2)11CH3, R1 = R2 =] yielded an inhibition in vivo at 112 mg/kg ([1]; po, 112 mg/kg orally, rat, read-out: Percent protection calculated on edema development) of 10%.

Work on `Nc1ncnc2c1ncn2[C@@H]1O[C@H](CSCc2ccccc2)[C@@H](O)[C@H]1O` [n = 0 R = CH2C6 H5, R1 = R2 = H] yielded an inhibition in vivo at 47 mg/kg ([1]; po, 47 mg/kg orally, rat, read-out: Percent protection calculated on edema development) of 10%.

For `CCSC[C@H]1O[C@@H](n2cnc3c(N)ncnc32)[C@H](O)[C@@H]1O` [n = 0 R = CH2CH3, R1 = R2 = H, 5'-deoxy-5'-ethylthioadenosine], the inhibition in vivo at 80 mg/kg [1, 9] was 44%.

With `CSC[C@H]1O[C@@H](n2cnc3c(N)ncnc32)[C@@H]2OC(C)(C)O[C@@H]21` [n = 0 R = CH3, R1 = H, R2R1 = isopropyl, 5'-deoxy-2',3'-isopropylidene-5'-methylthioadenosine] the inhibition in vivo at 91 mg/kg ([1]; po, 91 mg/kg orally, rat, read-out: Percent protection calculated on edema development) was 20%.

`CSC[C@H]1O[C@@H](n2cnc3c(NC(=O)c4ccccc4)ncnc32)[C@H](OC(=O)c2ccccc2)[C@@H]1OC(=O)c1ccccc1` [n = 0 R = CH3, R1 = R2 = COC6 H5] gave an inhibition in vivo at 164 mg/kg ([1]; po, 164 mg/kg orally, rat, read-out: Percent protection calculated on edema development) of 10%.

With `CSC[C@H]1O[C@@H](n2cnc3c(NC(C)=O)ncnc32)[C@H](OC(C)=O)[C@@H]1OC(C)=O` [n = 0 R = CH3, R1 = R2 = COCH3, N^6,2',3'-triacetyl-5'-deoxy-5'-thioadenosine] the inhibition in vivo at 114 mg/kg ([1]; po, 114 mg/kg orally, rat, read-out: Percent protection calculated on edema development) was 47%.

Compound `CSC[C@H]1O[C@@H](n2cnc3c(NS(=O)(=O)c4ccc(C)cc4)ncnc32)[C@H](OS(=O)(=O)c2ccc(C)cc2)[C@@H]1OS(=O)(=O)c1ccc(C)cc1` [n = 0 R = CH3, R1 = R2 = tosyl] has an inhibition in vivo at 204 mg/kg ([1]; po, 204 mg/kg orally, rat, read-out: Percent protection calculated on edema development) of 15%.
